In patent publication US6407217B1, “Imidazolinone haptens and antigens and enzyme conjugates prepared therefrom” (American Cyanamid Company, priority 1994, dated 2002):

Experiments:
Format in all cases: binding, mouse
[1] = tested on: monoclonal antibody 1A5.5; assay: Indirect competitive enzyme immunoassay, monoclonal antibody 1A5.5; settings: for I50 (half-maximal inhibition): MAb 1A5.5, coating antigen H
From the text: (§1) An indirect enzyme immunoassay is used to screen for the production of anti-imidazolinone anti-bodies in the serum of the immunized mice and in cell fusion cultures. The method used is essentially the same as the method described by Voller, et al (Manual of Clinical Immunology, eds. N. Rose Friedman, H., pp. 506-512, 1976). For the indirect enzyme immunoassays, an antigen is adsorbed onto polystyrene flat bottom wells in 0.1M Na2CO3 buffer pH 9.6. Excess unbound material is washed away with buffer (PBS, containing 0.01M NaH2PO4—Na2HPO4 pH 7.6 with 0.05% TWEEN® 20 (a polyoxyethyene sorbitan monolaurate surpactantor Atlas chemical industries and 0.02% NaN3). A 0.05% gelatin solution prepared in PBS is used to block the sites unoccupied by the antigen to prevent non-specific binding of reagents. Antibody from serum or culture are added into the wells for binding to the bound antigen. The wells are washed and the amount of bound anitbody is determined by adding alkaline phosphatase-conjugated goat anti-mouse IgG (Boehringer) to the wells followed by the addition of a p-nitrophenyl phosphate solution for color development. The color intensity is determined spectrophotometrically and is used to determine the titers.
(§2) The bound antigen and imidazolinone compound compete for the antibody molecules. The wells are then washed and the color is developed as described above. In this assay, the color is inversely proportional to the amount of imidazolinone compound. In practice, standard curves are generated with known amounts of an imidazolinone compound and amounts present in test samples are calculated by interpolation.
(§3) Indirect competitive enzyme immunoassays for several imidazolinone compounds, using various monoclonal antibodies and antigens, are conducted according to the procedure described in Example 9. Antigens G and H are as described in Example 10 and Antigen I is shown below.

[2] = tested on: monoclonal antibody 1D2.6; assay: Indirect competitive enzyme immunoassay, monoclonal antibody 1D2.6
From the text: as §1, §2, §3

[3] = target: monoclonal antibody 2C6.5; assay: Indirect competitive enzyme immunoassay, monoclonal antibody 2C6.5
From the text: as §1, §2, §3

[4] = target: monoclonal antibody 3A2.2; assay: Indirect competitive enzyme immunoassay, monoclonal antibody 3A2.2
From the text: as §1, §2, §3

[5] = target: monoclonal antibody 3A5.1; assay: Indirect competitive enzyme immunoassay, monoclonal antibody 3A5.1
From the text: as §1, §2, §3

[6] = tested on: monoclonal antibody 3A2.2; assay: Direct competitive enzyme immunoassay with MAb 3A2.2 and alkaline phosphatase enzyme conjugate; settings: mean of triplicate
From the text: The monoclonal antibody 3A2.2 prepared in Example 10 and the enzyme conjugate prepared in Example 12 are used to establish a direct competitive enzyme immunoassay method for the determination of the concentration of imazapyr in samples. A constant amount of the monoclonal antibody 3A2.2 is adsorbed onto polystyrene plate wells through an affinity purified goat anti-mouse immunoglobulin which is previously adsorbed onto the polystyrene plate wells. The wells are washed with buffer (PBS, containing 0.01M NaH2PO4—Na2HPO4 pH 7.6 with 0.05% TWEEN® 20 (a polyoxyethylene sorbitan monolaurate surfactant of Atlas Chemical Industries and 0.02% NaN3) and blocked with a 0.05% gelatin solution prepared in PBS. Standard solutions having concentrations of imazapyr from 0 to 5,000 ng/mL are added to the blocked wells followed by the addition of the aforementioned enzyme conjugate.
After several minutes, the wells are washed and the color is developed by adding BRL alkaline phosphatase substrate amplification kit (commercially available from GIBCO BRL Life Technologies Inc., […], Md.). After several minutes, readings are taken for each well at 490 nm using a microwell reader.
A standard curve plot having the log of imazapyr concentration on the x-axis and the optical density reading at 490 nm (OD 490) on the Y-axis is used to determine unknown concentrations of imazapyr present in soil, water or plant samples from their OD 490 values.
The OD 490 readings for 6 imazapyr standard solutions and a solvent blank are obtained from a direct enzyme immunoassay experiment run in triplicate. The standard curve obtained by plotting the mean OD 490 reading versus the logarithm of the standard imazapyr concentration is used to determine unknown imazapyr concentrations from about 0.5 ng/mL to 500 ng/mL.

Molecule	affinity compared to the other imidazolinone compounds ([1]; MAb 1A5.5)	I50 (half-maximal inhibition) [1]	affinity compared to the other imidazolinone compounds ([2]; MAb 1D2.6)	I50 (half-maximal inhibition) ([2]; MAb 1D2.6, coating antigen G)	I50 (half-maximal inhibition) ([2]; MAb 1D2.6, coating antigen I)	I50 (half-maximal inhibition) ([3]; MAb 2C6.5, coating antigen G)	I50 (half-maximal inhibition) ([3]; MAb 2C6.5, coating antigen I)	I50 (half-maximal inhibition) ([4]; MAb 3A2.2, coating antigen G)	I50 (half-maximal inhibition) ([4]; MAb 3A2.2, coating antigen I)	I50 (half-maximal inhibition) ([5]; MAb 3A5.1, coating antigen G)	I50 (half-maximal inhibition) ([5]; MAb 3A5.1, coating antigen I)	OD 490 Reading ([6]; imazapyr 0.05 ng/mL)	OD 490 Reading ([6]; imazapyr 0.50 ng/mL)	OD 490 Reading ([6]; imazapyr 5.0 ng/mL)	OD 490 Reading ([6]; imazapyr 50 ng/mL)	OD 490 Reading ([6]; imazapyr 500 ng/mL)	OD 490 Reading ([6]; imazapyr 5,000 ng/mL)
CCc1cnc(C2=NC(C)(C(C)C)C(=O)N2)c(C(=O)O)c1 (stereo not drawn) [Imazethapyr, 5-ethyl-2-(4-isopropyl-4-methyl-5-oxo-2-imidazolin-2-yl)nicotinic acid]	greater affinity	60 ppb (ng/mL)	greater affinity	>10,000 ppb (ng/mL)	20 ppb (ng/mL)	13 ppb (ng/mL)	15 ppb (ng/mL)	34 ppb (ng/mL)	21 ppb (ng/mL)	>1,000 ppb (ng/mL)	220 ppb (ng/mL)						
CC(C)C1(C)N=C(c2ncccc2C(=O)O)NC1=O (stereo not drawn) [Imazapyr, 2-(4-isopropyl-4-methyl-5-oxo-2-imidazolin-2-yl)nicotinic acid]		500 ppb (ng/mL)		>10,000 ppb (ng/mL)	>1,000 ppb (ng/mL)			290 ppb (ng/mL)	331 ppb (ng/mL)		>5,000 ppb (ng/mL)	2.671	2.507	1.893	0.801	0.474	0.446
CC(C)C1(C)N=C(c2nc3ccccc3cc2C(=O)O)NC1=O (stereo not drawn) [Imazaquin, 2-(4-isopropyl-4-methyl-5-oxo-2-imidazolin-2-yl)-3-quinolinecarboxylic acid]		>1,000 ppb (ng/mL)		>10,000 ppb (ng/mL)	2,000 ppb (ng/mL)			5 ppb (ng/mL)	3 ppb (ng/mL)		800 ppb (ng/mL)						
mixture of methyl 6-(4-isopropyl-4-methyl-5-oxo-2-imidazolin-2-yl)-m-toluate and methyl 2-(4-isopropyl-4-methyl-5-oxo-2-imidazolin-2-yl)-p-toluate [Imazamethabenz-methyl]		500 ppb (ng/mL)		>10,000 ppb (ng/mL)	105 ppb (ng/mL)			322 ppb (ng/mL)	356 ppb (ng/mL)	400 ppb (ng/mL)	90 ppb (ng/mL)						
Cc1cnc(C2=NC(C)(C(C)C)C(=O)N2)c(C(=O)O)c1 (stereo not drawn) [Imazamethapyr, 2-(4-isopropyl-4-methyl-5-oxo-2-imidazolin-2-yl)-5-methylnicotinic acid]		100 ppb (ng/mL)		>10,000 ppb (ng/mL)	250 ppb (ng/mL)	171 ppb (ng/mL)	204 ppb (ng/mL)	31 ppb (ng/mL)	27 ppb (ng/mL)	>1,000 ppb (ng/mL)	340 ppb (ng/mL)						
